Measured values from patent US20030162803A1, “Anhydrovinblastine for the treatment of cancer” (priority 1997, published 2003).

Columns and labels:
P388 tumors = test: Murine P388 model in BDF1 mice; assay type: in vivo
Procedure: Antitumor studies on mice focussed, in one case, on the P388 leukaemia model. […] This is an ascitic tumor model that was generated by intraperitoneal inoculation of 1×10^6 P388 cells (derived from culture, with an original cell line obtained from the NCI tumor repository) in BDF1 mice (Charles Rivers). One day after tumor cell inoculation, mice were treated with a single intravenous injection of drug. Animal weight was monitored daily and tumor progression was measured as an increase in animal weight and through estimation of survival time. Therapy was described by a decrease in tumor progression and an increase in survival time relative to an untreated control group. Initial studies established the maximum therapeutic dose for AHVB. Subsequently comparative studies with vincristine and Navelbine™ were initiated where animals were treated with each drug at the maximum therapeutic dose.
The in vivo anti-tumor activity of AHVB was compared to that of vincristine, Navelbine™ in the BDF1-murine P388 model in the procedure as follows. P388 cells were derived from the ascities of previously injected female BDF1 mice (19-21 grams) P388 cells, from the NCI tumor repository were inoculated directly into mice. The cells arrive from NCI frozen in 1 ml aliquots. These samples were thawed rapidly at 37° C. and subsequently injected (within 1 hour) intraperitoneally into two mice, 0.5 ml per mouse. One week (7 days) after inoculation, the tumor cells were harvested by removing peritoneal fluid using a sterile syringe with a 22 gauge needle. The cells, pooled from two animals, were counted using a hemocytometer, diluted (RPMI media) to a concentration of 2×10^6 cells/ml and 0.5 ml was then re-injected into each of two BDF1 mice. Remaining cells were washed and placed into a DMSO containing media and frozen (in freezer packs that cool at a defined rate). This process was repeated weekly over a […]. Cells used for anti-tumor studies were collected from the third passage to the 20th passage. After the 20th passage the cells were no longer used for experimental studies. Newly established cells were derived from the frozen cells prepared as described above.
Groups (five mice per group) of female BDF1 mice (Charles Rivers, Canada) were injected (intraperitoneal) with 10^6 P388 cells (as described above). One day after tumor cell inoculation, the mice were given a bolus intravenous injection of indicated drug via the lateral tail vein. Control groups were injected with saline. Free drug samples were prepared on the day of injection such that the final concentrations were sufficient to deliver the indicated drug dose in a volume of 200 μl. All dilutions were made using 0.9% Sodium Chloride Injection USP. The mice were briefly (less than 30 sec.) restrained during intravenous injections. Dilation of the vein was achieved by holding the animals under a heat lamp for a period of between five and ten minutes. Following administration of the test articles, animals were weighed daily for fourteen days and monitored for signs of stress twice daily for the first 14 days (once daily on weekends) and once daily for the remainder of the study. Severely distressed animals were terminated by CO2 asphyxiation and the time of death was recorded to occur on the following day. Although complete dose titrations were completed for each drug, the data shown in FIG. 6 is that obtained after administration of the free drugs at their maximum tolerated dose. This was 3, 40 and 40 mg/kg for vincristine, Navelbine™ and AHVB, respectively.
After treating mice (bearing the P388 tumor) with a single dose of the indicated drug, animals were examined twice daily for the first 14 days (once daily on weekends). Weight gain in the control is an indication of tumor progression.
The studies were conducted as described for FIG. 6. […]

[1] = tested on: H460 human non-small cell lung carcinoma tumor xenograph; test: H460 SC tumor mouse model; assay type: in vivo, SCID/Rag-2 mice
Procedure: Cultures of H460 Human Lung cells are available from the British Columbia Cancer Research Center. Cells were injected subcutaneously twice into mature male Rag-2 mice (24 mice, 1×10^6 cells/mouse) using a 26-gauge needle. The H460 cells were suspended in a Hank's Balanced Salt Solution without calcium. Tumors were allowed to form in the mice for 11 days.
When the tumors were well established, four separate groups of mice, were selected for administration of the three test articles (i.e. one group for each test article of AHVB bisulphate, AHVB ditartrate, and Navelbine™) and one control.
AHVB bisulphate and ditartrate, and Navelbine™ were solubilized using 5% dextrose saturated with Argon. Both of these articles were at a concentration of 20 mg/ml. Any dose dilutions were made with 5% dextrose.
The articles were administered intravenously on the days 1, 5 and 9, as were controls of 5% dextrose. Body weights and tumor measurements with calipers were taken every day for the first 10 days and then every other day for the remainder of the study.
Following administration of the test articles, the animals; weight and tumor size (using calipers) were determined daily for the first 10 days and then every other day for the remainder of the study. If the tumor size reached 1 gram in weight or the tumor started to ulcerate, the animals were sacrificed (by carbon dioxide inhalation) and subjected to necropsy. Animals were also monitored at least daily for signs of stress for the full length of the study. Animals manifesting severe symptoms of stress (rapid weight loss, panting, hunched posture, scruffy coat) were also sacrificed and a necropsy performed.
The results of the efficacy studies are given in FIG. 9 and present averages of data from 6 or fewer animals. […] Each tumor was measured in length and width and the volume of each tumor was calculated by […]. […] The calculation was performed each day the tumors were measured. The standard deviation of the mean and the standard error of the mean were calculated with the error bars appearing in the graph in FIG. 9. […]

[2] = Toxicological studies in rats; assay type: in vivo
C-4 cells = test: Cytotoxicity assay, C-4 (FIG. 8); assay type: cell-based, human; conditions: 3 day incubation
Procedure: (§1) The IC50s for the SK0V3 and C-4 cells were 4.0 μM and 0.02 μM respectively. Both cell lines were obtained from the ATCC and grown using standard growth techniques and medium as described above. The IC50s were determined through standard cytoxicity assays described above, with each well containing approximately 10^4 cells.

SK0V3 cells = test: Cytotoxicity assay, SKOV3 (FIG. 8); assay type: cell-based; conditions: 3 day incubation
Procedure: as §1

[3] = IV 10 mg/kg and 20 mg/kg on days 1, 5 and 9

CCC1=C[C@H]2CN(CCc3c([nH]c4ccccc34)[C@@](C(=O)OC)(c3cc4c(cc3OC)N(C)[C@H]3[C@@](O)(C(=O)OC)[C@H](OC(C)=O)[C@]5(CC)C=CCN6CC[C@]43[C@@H]65)C2)C1 [AHVB, 3′,4′-anhydrovinblastine]
onset of acute toxic reaction at maximum tolerated dose (P388 tumors; 40 mg/kg IV): ≤ 1 h
anti-tumor activity, number of long term survivors (>60 days) (P388 tumors; 40 mg/kg single IV injection vs vincristine 3 mg/kg, FIG. 6): significantly better than that observed for vincristine
times less toxic (on a weight basis) than vincristine (P388 tumors; mouse, in vivo): approximately 10 times
toxicity (vinca alkaloid induced weight loss) (P388 tumors; single IV injection at maximum tolerated dose, 40 mg/kg, FIG. 4): least toxic of the three drugs evaluated
maximum tolerated dose (P388 tumors; single bolus intravenous injection, BDF1 mice bearing P388 tumors): 40 mg/kg
toxicity compared with Navelbine [1, 3]: less toxic than Navelbine™
tumor growth inhibition compared with Navelbine [1, 3]: greater tumor growth inhibition
activity compared with vincristine and vinorelbine ([1]; human tumor xenografts of NSCLC, equitoxic doses): superior activity to that of both vincristine and vinorelbine
toxicities [2]: reversible myelosupression and gastrointestinal toxicities
IC50 (C-4 cells): 20 nM
IC50 (SK0V3 cells): 4000 nM
